In US20100009956A1, “NOVEL SUBSTITUTED PYRIMIDINES AS CYSTEINE PROTEASE INHIBITORS” (Glaxo Group Limited , a corporation, priority 2006, published 2010) one finds IC50 data, which are given here for 17 compounds.

Test [1] addresses Cathepsin S (Homo sapiens, UniProt P25774). The test is described as follows: Cathepsin S enzymatic assay (assay 1). The class given is biochemical. The settings on record: human recombinant enzyme, KQKLR-AMC substrate, pH 6.5. An outline of the steps: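 Human recombinant cathepsin S activity was measured with the fluorogenic substrate KQKLR-AMC at 30 uM in 50 mM MES, pH 6.5, containing 0.5 mM CHAPS, 10 mM L-CYS and 5 mM EDTA with 1% DMSO. Enzyme and substrate were added to inhibitor wells, run at ambient temperature, quenched after 90 minutes with E-64, and AMC fluorescence (360/460 […]) was fit to give IC50.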

The subject of test [2] is Plasmodium falciparum parasite. The experiment in a line: Whole cell assay (assay 2). The class given is cell-based. An excerpt:
Assay 2) Determination of Whole Cell Activity Against the Plasmodium falciparum Parasite
Compounds can be evaluated for whole cell actvity against the Plasmodium falciparum parasite according to the procedure described in Sijwali S. and Rosenthal P. J., (2004) Proceedings of the National Academy of Sciences of the United States of America (PNAS) 101 (13), 4384-4389 (see in particular “Measurement of Parasite Growth rates and Inhibitor Sensitivity” on page 4385); IC50 values can be calculated as described in Singh A. and Rosenthal P. J., (2001) Antimicrobial Agents and Chemotherapy 45(3), 949-951 (see in particular page 950, first column); synchronised parasites can be prepared as described in Divo A. A. et al., (1985) Protozool. 32, 59-64.

The target of test [3] is T1, Cathepsin K (Homo sapiens, UniProt P43235).
T1 sequence (P43235 115-329): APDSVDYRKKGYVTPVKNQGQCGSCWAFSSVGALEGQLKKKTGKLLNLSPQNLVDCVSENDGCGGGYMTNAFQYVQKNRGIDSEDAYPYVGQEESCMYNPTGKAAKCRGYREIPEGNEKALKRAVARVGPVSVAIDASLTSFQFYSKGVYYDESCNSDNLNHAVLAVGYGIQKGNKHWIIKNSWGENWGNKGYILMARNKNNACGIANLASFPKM
The experiment in a line: Cathepsin K enzymatic assay (assay 1). The settings on record: human recombinant enzyme, Z-FR-AFC substrate, pH 5.5. The test is classed as biochemical. An outline of the steps:
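Human recombinant cathepsin K was assayed with the fluorogenic substrate Z-FR-AFC at 20 uM in 100 mM sodium acetate, pH 5.5, with 5 mM L-cysteine, 1 mM CHAPS, 5 mM EDTA and 1% DMSO. Enzyme plus substrate was added to wells holding inhibitor in DMSO. After 60 minutes at ambient temperature, 16.6 uM E-64 quenched the reaction. AFC fluorescence (excitation 405 nm, emission 530 nm) was read, and IC50 came from a four-parameter dose-response fit.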

Test [4] concerns the target Falcipain-3 (Plasmodium falciparum, UniProt Q8IIL0). The test is described as follows: Falcipain-3 enzymatic assay (assay 1). The test is classed as biochemical. An outline of the steps: (§1)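 Recombinant parasite enzyme with 30 uM H-D-VLR-AFC in 100 mM sodium acetate pH 5.5, 10 mM DTT, 0.5 mM CHAPS, 1% DMSO, ambient temperature. Endpoint after 60 minutes, quenched with 16.6 uM E-64; AFC fluorescence (ex 405/em 530). IC50 from four-parameter fit, apparent KI assuming competitive inhibition.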

In test [5] the target is Falcipain-2 (Plasmodium falciparum, UniProt Q8I6U4). The test is described as follows: Falcipain-2 enzymatic assay (assay 1). The test is classed as biochemical. An outline of the steps: as §1
[6] abbreviates: parasitic recombinant enzyme, H-D-VLR-AFC substrate, pH 5.5, endpoint read, read-out: Falcipain-3 IC50.
The mark [7] stands for this setting: parasitic recombinant enzyme, H-D-VLR-AFC substrate, pH 5.5, endpoint read, read-out: Falcipain-2 IC50.

pIC50: −log10 of the molar value. Structures can show the parent of a compound that is named as a salt. Where two headings read alike, the source gives them in different places. A value given as a limit tells only on which side of the number the result lay.

Chain of Falcipain-3 (Q8IIL0 243-492): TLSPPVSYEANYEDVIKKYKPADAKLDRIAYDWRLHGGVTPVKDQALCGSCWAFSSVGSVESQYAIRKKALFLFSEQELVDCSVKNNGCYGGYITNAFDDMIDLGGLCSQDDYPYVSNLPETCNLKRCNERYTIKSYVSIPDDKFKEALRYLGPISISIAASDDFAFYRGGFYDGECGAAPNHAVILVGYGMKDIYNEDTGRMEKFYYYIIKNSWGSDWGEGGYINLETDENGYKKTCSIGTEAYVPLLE
Chain of Falcipain-2 (Q8I6U4 244-484): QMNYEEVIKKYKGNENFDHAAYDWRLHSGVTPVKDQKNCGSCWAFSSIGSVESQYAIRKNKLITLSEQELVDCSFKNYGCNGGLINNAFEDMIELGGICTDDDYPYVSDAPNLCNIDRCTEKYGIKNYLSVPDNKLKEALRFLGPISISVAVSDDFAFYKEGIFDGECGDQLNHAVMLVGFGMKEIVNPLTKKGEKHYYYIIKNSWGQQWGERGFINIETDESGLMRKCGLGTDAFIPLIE
Chain of Cathepsin S (P25774 115-331): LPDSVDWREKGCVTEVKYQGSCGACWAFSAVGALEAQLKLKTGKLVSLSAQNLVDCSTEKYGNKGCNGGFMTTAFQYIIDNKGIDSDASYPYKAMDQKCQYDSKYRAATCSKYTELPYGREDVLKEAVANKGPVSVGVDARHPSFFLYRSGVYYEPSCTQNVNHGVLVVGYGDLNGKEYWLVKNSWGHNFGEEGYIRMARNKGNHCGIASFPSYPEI

In the case of `CN1CCN(Cc2ccc(C(=O)NN(c3nc(C#N)ncc3Br)C3CCCC3)cc2)CC1` [Example 1A, N′-(5-bromo-2-cyano-4-pyrimidinyl)-N′-cyclopentyl-4-[(4-methyl-1-piperazinyl)methyl]benzohydrazide], the pIC50 (in general, the IC50 on a negative log10 scale, so that one unit is a factor of ten) was over 6.00 in test [1] and 7.82 to 8.60 in test [2].

For `CN1CCN(Cc2ccc(C(=O)NN(c3nc(C#N)ncc3Br)C3CCCC3)cc2)CC1` [Example 1B, N′-(5-bromo-2-cyano-4-pyrimidinyl)-N′-cyclopentyl-4-[(4-methyl-1-piperazinyl)methyl]benzohydrazide hydrochloride], the values for the pIC50 in test [1], in test [3] and in test [2] (hydrochloride) were over 6.70, over 8.82 and 7.82 to 8.60, respectively.

As to `CN1CCN(Cc2ccc(C(=O)NN(c3nc(C#N)ncc3Br)C3CCCCC3)cc2)CC1` [Example 16, N′-(5-bromo-2-cyano-4-pyrimidinyl)-N′-cyclohexyl-4-[(4-methyl-1-piperazinyl)methyl]benzohydrazide trifluoroacetate], the pIC50 is over 6.00 in test [1]; 7.82 to 8.60 in test [4]; over 9.00 in test [5]; over 8.82 in test [3]; 6.82 to 7.82 in test [2] (Plasmodium falciparum).

As to `CN1CCN(C2CCN(Cc3ccc(C(=O)NN(c4nc(C#N)ncc4Br)C4CCOCC4)cc3)CC2)CC1` [Example 29, N′-(5—Bromo-2-cyano-4-pyrimidinyl)-4-{[4-(4-methyl-1-piperazinyl)-1-piperidinyl]methyl}-N′-(tetrahydro-2H-pyran-4-yl)benzohydrazide trifluoroacetate], the pIC50 in test [4] (setting [6]) is 7.82 to 8.60; in test [5] it was over 9.00; in test [3], over 7.77; in test [2] (Plasmodium falciparum) it was 7.82 to 8.60.

In the case of `CN1CCN(C2CCN(Cc3ccc(C(=O)NN(c4nc(C#N)ncc4Cl)C4CCOCC4)cc3)CC2)CC1` [Example 34, N′-(5-Chloro-2-cyano-4-pyrimidinyl)-4-{[4-(4-methyl-1-piperazinyl)-1-piperidinyl]methyl}-N′-(tetrahydro-2H-pyran-4-yl)benzohydrazide trifluoroacetate], the pIC50 is 7.82 to 8.60 in test [4], 8.60 to 9.00 in test [5], over 7.77 in test [3] and 6.82 to 7.82 in test [2] (Plasmodium falciparum).

On to `CN1CCN(Cc2ccc(-c3cncc(C(=O)NN(c4nc(C#N)ncc4Br)C4CCCC4)c3)cc2)CC1` [Example 45, N′-(5-bromo-2-cyano-4-pyrimidinyl)-N′-cyclopentyl-5-{4-[(4-methyl-1-piperazinyl)methyl]phenyl}-3-pyridinecarbohydrazide trifluoroacetate], for which the pIC50 in test [1] is over 6.70; in test [4] it was 7.82 to 8.60; in test [5], over 9.00; in test [3], over 8.82; in test [2] (Plasmodium falciparum), 7.82 to 8.60.

`CN1CCN(Cc2ccc(C(=O)NN(c3nc(C#N)ncc3Cl)C3CCCC3)cc2)CC1` [Example 50, N′-(5-chloro-2-cyano-4-pyrimidinyl)-N′-cyclopentyl-4-[(4-methyl-1-piperazinyl)methyl]benzohydrazide trifluoroacetate]: the pIC50 in test [1] is over 6.70; in test [4], 6.82 to 7.82; in test [5] (setting [7]), over 9.00; in test [3] it was over 8.82.

Regarding `CN1CCN(Cc2ccc(C(=O)NN(c3nc(C#N)ncc3Cl)C3CCCCC3)cc2)CC1` [Example 51, N′-(5-chloro-2-cyano-4-pyrimidinyl)-N′-cyclohexyl-4-[(4-methyl-1-piperazinyl)methyl]benzohydrazide trifluoroacetate], the pIC50 in test [1] is over 6.70; in test [4], 6.82 to 7.82; in test [5], 8.60 to 9.00; in test [3], over 8.82.

For `CN1CCN(c2ncc(C(=O)NN(c3nc(C#N)ncc3Cl)C3CCCC3)s2)CC1` [Example 77, N′-(5-chloro-2-cyano-4-pyrimidinyl)-N′-cyclopentyl-2-(4-methyl-1-piperazinyl)-1,3-thiazole-5-carbohydrazide trifluoroacetate], the pIC50 in test [4] was 6.82 to 7.82; in test [5], over 9.00; in test [2] (Plasmodium falciparum) it was 6.82 to 7.82.

For `CC(=O)N1CCC(N(NC(=O)OC(C)(C)C)c2nc(C#N)ncc2Br)CC1` [Example 79, 1,1-dimethylethyl 2-(1-acetyl-4-piperidinyl)-2-(5-bromo-2-cyano-4-pyrimidinyl)hydrazinecarboxylate], the pIC50 in test [1] was over 6.70; in test [4] (setting [6]), 6.82 to 7.82; in test [5], over 9.00; in test [2] (Plasmodium falciparum), 6.82 to 7.82.

For the compound `CCCN1CCN(c2ccc(C(=O)NN(c3nc(C#N)ncc3Br)C3CCCCC3)cc2)CC1` [Example 80, N′-(5-bromo-2-cyano-4-pyrimidinyl)-N′-cyclohexyl-4-(4-propyl-1-piperazinyl)benzohydrazide trifluoroacetate], the pIC50 in test [1] was over 6.70; in test [4], 6.82 to 7.82; in test [5] it was over 9.00; in test [3], over 8.82; in test [2] (Plasmodium falciparum), 6.60 to 6.82.

`CC(C)(C)N(CCO)Cc1ccc(C(=O)NN(c2nc(C#N)ncc2Cl)C2CCCC2)cc1` [Example 82, N′-(5-chloro-2-cyano-4-pyrimidinyl)-N′-cyclopentyl-4-{[(1,1-dimethylethyl)(2-hydroxyethyl)amino]methyl}benzohydrazide trifluoroacetate]: the pIC50 in test [4] was 7.82 to 8.60; in test [5] it was over 9.00; in test [2] (Plasmodium falciparum), 7.82 to 8.60.

As to `CN(Cc1ccc(C(=O)NN(c2nc(C#N)ncc2Cl)C2CCCC2)cc1)CC1OCCO1` [Example 83, N′-(5-chloro-2-cyano-4-pyrimidinyl)-N′-cyclopentyl-4-{[(1,3-dioxolan-2-ylmethyl)(methyl)amino]methyl}benzohydrazide trifluoroacetate], the values for the pIC50 in test [4], in test [5] and in test [2] (Plasmodium falciparum) were 8.60 to 9.00, over 9.00 and 6.60 to 6.82, respectively.

As for `CN(CCN(C)C(=O)OC(C)(C)C)Cc1ccc(C(=O)NN(c2nc(C#N)ncc2Cl)C2CCCC2)cc1` [Example 84, 1,1-dimethylethyl{2-[[(4-{[2-(5-chloro-2-cyano-4-pyrimidinyl)-2-cyclopentylhydrazino]carbonyl}phenyl)methyl](methyl)amino]ethyl}methylcarbamate trifluoroacetate], the pIC50 in test [1] is over 6.00; in test [4], 7.82 to 8.60; in test [5], over 9.00; in test [2] (Plasmodium falciparum), 6.60 to 6.82.

In the case of `CC(C)N(CCN(C(=O)OC(C)(C)C)C(C)C)Cc1ccc(C(=O)NN(c2nc(C#N)ncc2Cl)C2CCCC2)cc1` [Example 85, 1,1-dimethylethyl{2-[[(4-{[2-(5-chloro-2-cyano-4-pyrimidinyl)-2-cyclopentylhydrazino]carbonyl}phenyl)methyl](1-methylethyl)amino]ethyl}(1-methylethyl)carbamate trifluoroacetate], the pIC50 was over 6.70 in test [1], 7.82 to 8.60 in test [4], over 9.00 in test [5] and 6.60 to 6.82 in test [2] (Plasmodium falciparum).

Consider “N′-(1-acetyl-4-piperidinyl)-N′-(5-bromo-2-cyano-4-pyrimidinyl)-4-[(4-methyl-1-piperazinyl)methyl]benzohydrazide trifluoroacetate [Example 37]”, for which the pIC50 in test [4] (setting [6]) is 6.82 to 7.82; in test [5] (setting [7]) it was over 9.00; in test [2], 6.82 to 7.82.

On to “N′-(5-chloro-2-cyano-4-pyrimidinyl)-N′-cyclopentyl-4-{[methyl(3-methylbutyl)amino]methyl}benzohydrazide trifluoroacetate [Example 63]”, for which the negative logarithm of the IC50 (pIC50) in test [4] (setting [6]) is 7.82 to 8.60; in test [5] (setting [7]), over 9.00; in test [2] it was 7.82 to 8.60.
